Assay results reported in paper PMC9709698 (Journal of Molecular Structure, 2022).

Key:
NRC-03-nhCoV = experiment: Antiviral activity; format: cell-based, SARS-CoV-2; conditions: CC50 Vero-E6 / IC50 NRC-03-nhCoV
SARS-CoV-2 = experiment: Plaque infectivity reduction assay; format: cell-based; conditions: for inhibition at 62.5 µM: Severe acute respiratory syndrome coronavirus 2, read-out: Virus inhibition% Adsorption, 62.5 µM; for inhibition at 125 µM: Severe acute respiratory syndrome coronavirus 2, read-out: Virus inhibition% Adsorption, 125 µM

SMILES | SI (selectivity index) [CC50/IC50] (NRC-03-nhCoV) | also measured
O=C(CSc1nc2c(c(=O)[nH]1)CCCC2)Nc1ccccc1C(=O)O [Compound 12a, 2-(2-((4-Oxo-3,4,5,6,7,8-hexahydroquinazolin-2-yl)thio)acetamido)benzoic acid] | 2.5 | 
O=C(CSc1nc2c(c(=O)[nH]1)CCCC2)NNC(=O)c1ccccc1Cl [Compound 18e, 2-Chloro-N'-(2-((4-oxo-3,4,5,6,7,8-hexahydroquinazolin-2-yl)thio)acetyl)benzohydrazide] | 1.14 | 
O=C(CSc1nc2ccccc2c(=O)[nH]1)NNC(=O)c1ccccc1Cl [Compound 17e, 2-Chloro-N'-(2-((4-oxo-3,4-dihydroquinazolin-2-yl)thio)acetyl)benzohydrazide] | 0.24 | 
COc1ccccc1C(=O)NNC(=O)CSc1nc2c(c(=O)[nH]1)CCCC2 [Compound 18d, 2-Methoxy-N'-(2-((4-oxo-3,4,5,6,7,8-hexahydroquinazolin-2-yl)thio)acetyl)benzohydrazide] | 2.95 | 
O=C(CSc1nc2c(c(=O)[nH]1)CCCC2)NNC(=O)c1ccc(Cl)cc1 [Compound 18f, 4-Chloro-N'-(2-((4-oxo-3,4,5,6,7,8-hexahydroquinazolin-2-yl)thio)acetyl)benzohydrazide] | 16.04 | Virus inhibition% Virucidal (SARS-CoV-2; 125 µM): 53.3 ± 3.35%; inhibition at 62.5 µM (SARS-CoV-2): 13.3 ± 3.35%; inhibition at 125 µM (SARS-CoV-2): 20 ± 3.3%
O=C(CSc1nc2c(c(=O)[nH]1)CCCC2)Nc1ccc(C(=O)O)cc1 [Compound 12c, 4-(2-((4-Oxo-3,4,5,6,7,8-hexahydroquinazolin-2-yl)thio)acetamido)benzoic acid] | 0.63 | 
O=C(CSc1nc2c(c(=O)[nH]1)CCCC2)NNC(=O)c1ccccc1Br [Compound 18g, 2-Bromo-N'-(2-((4-oxo-3,4,5,6,7,8-hexahydroquinazolin-2-yl)thio)acetyl)benzohydrazide] | 5.23 | 
Cc1ccc(C(=O)NNC(=O)CSc2nc3ccccc3c(=O)[nH]2)cc1 [Compound 17b, 4-Methyl-N'-(2-((4-oxo-3,4-dihydroquinazolin-2-yl)thio)acetyl)benzohydrazide] | 2.14 | 
O=C(CSc1nc2c(c(=O)[nH]1)CCCC2)NNC(=O)c1ccccc1 [Compound 18a, N'-(2-((4-oxo-3,4,5,6,7,8-hexahydroquinazolin-2-yl)thio)acetyl)benzohydrazide] | 1.68 | 
O=C(CSc1nc2ccccc2c(=O)[nH]1)NNC(=O)c1ccc([N+](=O)[O-])cc1 [Compound 17c, 4-Nitro-N'-(2-((4-oxo-3,4-dihydroquinazolin-2-yl)thio)acetyl)benzohydrazide] | 2.61 | 
O=C(CSc1nc2ccccc2c(=O)[nH]1)NNC(=O)c1ccccc1Br [Compound 17g, 2-Bromo-N'-(2-((4-oxo-3,4-dihydroquinazolin-2-yl)thio)acetyl)benzohydrazide] | 8.64 | inhibition at 62.5 µM (SARS-CoV-2): 26.7 ± 6.65%; inhibition at 125 µM (SARS-CoV-2): 29.6 ± 8.3%
O=C(CSc1nc2ccccc2c(=O)[nH]1)Nc1ccc(C(=O)O)cc1 [Compound 11c, 4-(2-((4-Oxo-3,4-dihydroquinazolin-2-yl)thio)acetamido)benzoic acid] | 5.6 | 
Cc1ccc(C(=O)NNC(=O)CSc2nc3c(c(=O)[nH]2)CCCC3)cc1 [Compound 18b, 4-Methyl-N'-(2-((4-oxo-3,4,5,6,7,8-hexahydroquinazolin-2-yl)thio)acetyl)benzohydrazide] | 4.43 | 
O=C(CSc1nc2ccccc2c(=O)[nH]1)Nc1cccc(C(=O)O)c1 [Compound 11b, 3-(2-((4-Oxo-3,4-dihydroquinazolin-2-yl)thio)acetamido)benzoic acid] | 4.9 | 
O=C(CSc1nc2c(c(=O)[nH]1)CCCC2)Nc1cccc(C(=O)O)c1 [Compound 12b, 3-(2-((4-Oxo-3,4,5,6,7,8-hexahydroquinazolin-2-yl)thio)acetamido)benzoic acid] | 0.98 | 
O=C(CSc1nc2ccccc2c(=O)[nH]1)NNC(=O)c1ccc(Cl)cc1 [Compound 17f, 4-Chloro-N'-(2-((4-oxo-3,4-dihydroquinazolin-2-yl)thio)acetyl)benzohydrazide] | 4.3 | 
O=C(CSc1nc2ccccc2c(=O)[nH]1)NNC(=O)c1ccccc1 [Compound 17a, N'-(2-((4-Oxo-3,4-dihydroquinazolin-2-yl)thio)acetyl)benzohydrazide] | 0.59 | 
O=C(CSc1nc2ccccc2c(=O)[nH]1)Nc1ccccc1C(=O)O [Compound 11a, 2-(2-((4-Oxo-3,4-dihydroquinazolin-2-yl)thio)acetamido)benzoic acid] | 4.3 | 
COc1ccccc1C(=O)NNC(=O)CSc1nc2ccccc2c(=O)[nH]1 [Compound 17d, 2-Methoxy-N'-(2-((4-oxo-3,4-dihydroquinazolin-2-yl)thio)acetyl)benzohydrazide] | 0.4 | 
O=C(CSc1nc2c(c(=O)[nH]1)CCCC2)NNC(=O)c1ccc([N+](=O)[O-])cc1 [Compound 18c, 4-Nitro-N'-(2-((4-oxo-3,4,5,6,7,8-hexahydroquinazolin-2-yl)thio)acetyl)benzohydrazide] | 10.67 | inhibition at 62.5 µM (SARS-CoV-2): 28.9 ± 10.2%; inhibition at 125 µM (SARS-CoV-2): 44.4 ± 3.87%
